Laboratory results published in patent US9133187B2, “Serine/threonine kinase inhibitors” (ARRAY BIOPHARMA INC., priority 2011, dated 2015).

Key:
[1] = system: PMA-stimulated P90RSK(Ser380) phosphorylation in HepG2 cells; test: Cellular P90RSK(Ser380) Phosphorylation Assay; type: cell-based; conditions: Homo sapiens, 1.5 h compound incubation, PMA stimulation, pP90RSK(Ser380) normalized to GAPDH, read-out: Cell Assay IC50
Experimental: Inhibition of PMA-stimulated P90RSK(Ser380) phosphorylation was determined by the following in vitro cellular mechanistic assay, which comprises incubating cells with a compound for 1.5 hours and quantifying fluorescent pP90RSK(Ser380) signal on fixed cells and normalizing to GAPDH signal.
Materials and Methods: HepG2 cells were obtained from ATCC and grown in DMEM supplemented with 10% fetal bovine serum. Cells were plated in 96-well plates at 35,000 cells/well and allowed to attach overnight at 37° C./5% CO2. Diluted compounds were then added at a final concentration of 0.5% DMSO. After 1.5 hour compound incubation, cells were stimulated with the addition of PMA (phorbol 12-myristate 13-acetate) at a final concentration of 100 ng/mL; the PMA stimulation was a 30-minute incubation at 37° C./5% CO2. After the 30-minute PMA stimulation, cells were washed with PBS and fixed in 3.7% formaldehyde in PBS at room temperature for 15-20 minutes. This was followed by another wash in PBS and then permeabilization in 100% MeOH at room temperature for 10-15 minutes. Following the permeabilization incubation, cells were washed in PBS/0.05% Tween-20, followed by a block in Odyssey blocking buffer (LI-COR Biosciences) for at least 1 hour. Antibodies to phosphorylated P90RSK(Ser380) (Cell Signaling #9335, rabbit monoclonal) and GAPDH (Fitzgerald 10R-G109a, mouse monoclonal) were added to the cells and incubated overnight at 4° C. pP90RSK(Ser380) antibody was used at a 1:250 dilution; GAPDH was used at a 1:10,000 dilution. After washing with PBS/0.05% Tween-20, the cells were incubated with fluorescently-labeled secondary antibodies (Anti-rabbit-Alexa Flour680, Invitrogen Cat#A21109; Anti-mouse-IRDye800CW, Rockland Inc. Cat#610-131-121) for 1 hour. Both secondary antibodies were used at a 1:1000 dilution. Cells were then washed and analyzed for fluorescence at both wavelengths using the Odyssey Infrared Imaging System (LI-COR Biosciences). Phosphorylated P90RSK(Ser380) signal was normalized to GAPDH signal. Representative date is in TABLE III (infra).

[2] = molecular target: human ERK-2 (Mitogen Activated Kinase 1) (Homo sapiens (Human), UniProt P28482); test: ERK-2 Enzymatic Assay; type: biochemical; conditions: 5 nM ERK-2, 25 μM ATP, Omnia peptide S/T17; read-out: ERK Inhibition IC50
human ERK-2 (Mitogen Activated Kinase 1), sequence (P28482 8-360): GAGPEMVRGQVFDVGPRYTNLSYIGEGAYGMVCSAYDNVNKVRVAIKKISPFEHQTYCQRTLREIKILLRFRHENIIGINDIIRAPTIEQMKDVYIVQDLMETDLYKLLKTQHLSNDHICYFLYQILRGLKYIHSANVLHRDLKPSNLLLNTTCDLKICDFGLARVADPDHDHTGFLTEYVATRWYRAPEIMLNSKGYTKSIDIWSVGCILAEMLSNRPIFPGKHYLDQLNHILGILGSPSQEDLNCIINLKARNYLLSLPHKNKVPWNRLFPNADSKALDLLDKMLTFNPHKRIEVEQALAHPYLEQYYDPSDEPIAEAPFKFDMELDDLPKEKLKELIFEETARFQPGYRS
Experimental: Compounds were tested in an enzymatic assay using human ERK-2 (Mitogen Activated Kinase 1), recombinantly expressed as an n-terminal 6-His fusion protein in E. coli and corresponding to aa 8-360. The substrate used was the fluorescent Omnia peptide S/T17 (Invitrogen of Carlsbad, Calif.; Cat. KNZ1171C). Test compounds were diluted in DMSO in 3-fold serial dilutions at 100× final concentrations. […] The assay was run at ambient temperature in a white 384-well polypropylene plate (Nunc, Inc of Naperville, Ill.; Cat. 267462) collecting data every 50 seconds for approximately 30 minutes on an Envision plate reader (PerkinElmer, Inc. of Waltham, Mass.); Excitation 340 nm/Emission 495 nm. The data collected from each well was fit to a straight line and the resulting rates were used to calculate percent of control. Percent of control was plotted against compound concentration and IC50 values were determined using a four-parameter fit.

Row | SMILES | IC50 [2] [nM] | IC50 [1] [nM]
1 | O=C(N[C@@H](c1ccc(Cl)c(F)c1)[C@@H]1CNCCO1)N1CCc2cnc(NC3CCOCC3)nc2C1 (mixture of isomers) [Compound I-144, N—((R)-(4-chloro-3-fluorophenyl)((R)-morpholin-2-yl)methyl)-2-(tetrahydro-2H-pyran-4-ylamino)-5,6-dihydropyrido[3,4-d]pyrimidine-7(8H)-carboxamide and N—((S)-(4-chloro-3-fluorophenyl)((S)-morpholin-2-yl)methyl)-2-(tetrahydro-2H-pyran-4-ylamino)-5,6-dihydropyrido[3,4-d]pyrimidine-7(8H)-carboxamide mixture] | 2.3 | 91.3
2 | Cn1ccc(C(NC(=O)N2CCc3cnc(NC4CCOCC4)nc3C2)c2ccc(Cl)c(F)c2)n1 (stereo not drawn) [Compound I-3, N-((4-chloro-3-fluorophenyl)(1-methyl-1H-pyrazol-3-yl)methyl)-2-(tetrahydro-2H-pyran-4-ylamino)-5,6-dihydropyrido[3,4-d]pyrimidine-7(8H)-carboxamide] | 3.8 | 101
3 | O=C(N1CCc2cnc(NC3CCOCC3)nc2C1)N1CCCC1c1nccs1 (stereo not drawn) [Compound I-139, (2-(tetrahydro-2H-pyran-4-ylamino)-5,6-dihydropyrido[3,4-d]pyrimidin-7(8H)-yl)(2-(thiazol-2-yl)pyrrolidin-1-yl)methanone] | 264 | –
4 | O=C(N1CCc2cnc(NC3CCOCC3)nc2C1)N1CCNCC1c1ccccc1 (stereo not drawn) [Compound I-141, (2-Phenylpiperazin-1-yl)(2-(tetrahydro-2H-pyran-4-ylamino)-5,6-dihydropyrido[3,4-d]pyrimidin-7(8H)-yl)methanone] | 108 | –
5 | O=C(N[C@H](CO)c1ccc(F)c(Cl)c1)N1CCc2cnc(N[C@H](CO)Cc3ccccc3)nc2C1 [II-17, 2-((S)-1-Hydroxymethyl-2-phenyl-ethylamino)-5,8-dihydro-6H-pyrido[3,4-d]pyrimidine-7-carboxylic acid [(S)-1-(3-chloro-4-fluoro-phenyl)-2-hydroxy-ethyl]-amide] | – | 1100
6 | CC(C)OC[C@@H](NC(=O)N1CCc2cnc(N[C@H]3CC[C@H](O)C3)nc2C1)c1ccc(F)c(Cl)c1 [II-95, 2-((1S,3S)-3-Hydroxy-cyclopentylamino)-5,8-dihydro-6H-pyrido[3,4-d]pyrimidine-7-carboxylic acid [(S)-1-(3-chloro-4-fluoro-phenyl)-2-isopropoxy-ethyl]-amide] | – | 551
7 | CC(C)Nc1ncc2c(n1)CN(C(=O)N[C@@H](c1ccc(C(F)(F)F)c(F)c1)c1cccc(=O)[nH]1)CC2 [II-99, 2-Isopropylamino-5,8-dihydro-6H-pyrido[3,4-d]pyrimidine-7-carboxylic acid [(S)-(3-fluoro-4-trifluoromethyl-phenyl)-(6-oxo-1,6-dihydro-pyridin-2-yl)-methyl]-amide] | – | 5600
8 | CC1CC(Nc2ncc3c(n2)CN(C(=O)N[C@H](CO)c2ccc(Cl)c(F)c2)CC3)CCO1 (stereo partly drawn) [II-366] | – | 91

More lines, main results first:

Row | IC50 [2] [nM] | SMILES | IC50 [1] [nM]
9 | 0.7 | C[C@@H](CO)Nc1ncc2c(n1)CN(C(=O)NC1CNCC1c1ccc(C(F)(F)F)cc1)CC2 (mixture of isomers) [II-171, 2-(2-Hydroxy-1-methyl-ethylamino)-5,8-dihydro-6H-pyrido[3,4-d]pyrimidine-7-carboxylic acid [4-(4-trifluoromethyl-phenyl)-pyrrolidin-3-yl]-amide] | 10000
10 | 2.4 | O=C(NC(c1ccc(Cl)c(F)c1)c1nnco1)N1CCc2cnc(NC3CCOCC3)nc2C1 (stereo in doubt) [II-359, 2-(Tetrahydro-pyran-4-ylamino)-5,8-dihydro-6H-pyrido[3,4-d]pyrimidine-7-carboxylic acid [(R)-(4-chloro-3-fluoro-phenyl)-[1,3,4]oxadiazol-2-yl-methyl]-amide] | 30
11 | 409 | CC(C)Nc1ncc2c(n1)CN(C(=O)NC[C@H](c1ccc(C(F)(F)F)c(F)c1)N1CCCC1)CC2 [II-102, 2-Isopropylamino-5,8-dihydro-6H-pyrido[3,4-d]pyrimidine-7-carboxylic acid [(S)-2-(3-fluoro-4-trifluoromethyl-phenyl)-2-pyrrolidin-1-yl-ethyl]-amide] | –
